Data published in patent US11739162B2, “Side chain modified peptoids useful as structure-stabilizing coatings for biomaterials” (Brookhaven Science Associates, LLC, priority 2019, dated 2023).

Key:
[1] = system: octahedra-shaped DNA origamis (OCs); assay: Negative-stained TEM imaging of peptoid-coated OCs; format: physicochemical; conditions: N/P 0.5, 0.25, 0.1; TAE 12.5 mM MgCl2
Description: Preparation of peptoid-coated OCs. The synthesized peptoids were dissolved in deionized water at a concentration of 10 mM and stored at 4° C.
Negative-stained TEM imaging. […] In brief, […] of the peptoid-coated OC (5-10 nM) solution was dropped on a carbon film for 1-3 min and the residual liquid was removed with a piece of filter paper. After that, the grid was washed with […] of deionized water followed by staining with […] of 2 wt % uranyl acetate for 15 sec. The excess liquid was removed with filter papers. TEM imaging was performed on a JEOL 1400 TEM with an acceleration voltage of 120 kV.

deoxyribonuclease I (DN) = assay: Nuclease degradation assays (AGE, TEM, DLS); conditions: DN 15 μg/mL, 30 min, 37° C., N/P 0.5
Description: The samples were incubated at 37° C. for 30 min at 650 rpm on a thermal cycler (Eppendorf) and characterized using AGE and negative-stained TEM imaging.

15-bp dsDNA = assay: Real-time SYBR Green I (SG) fluorescence assay of duplex DNA (dsDNA); format: binding; conditions: dsDNA/peptoid complexes
Description: A15-bp dsDNA was designed with a sequence of 5′-[…]-3′ (SEQ ID NO: 124) with a complementary sequence of 5′-[…]-3′ (SEQ ID NO: 125). The dsDNA (500 μM) was formed in PBS (1×) buffer and cooled from 70° C. to room temperature over 11 h. Next, the dsDNA (100 nM) solution was mixed with different peptoid solutions at varied concentrations in PBS overnight at room temperature. Prior to measuring fluorescence, SG (1×) was added to the dsDNA/peptoid mixtures for 2 h at room temperature. The fluorescence signal was recorded from 37° C. to 85° C. at a step of 0.03° C./sec by LightCycler 480. The concentrations of only peptoids in solution were the same as those in the N/P of 8, which were 3.43 μM for PE1, PE3, PE4, PE5, and 1.85 μM for PE2, respectively.

trypsin = assay: Fluorescence assay for tryptic digestion of BSA; format: biochemical; conditions: trypsin 50 nM, 37° C.
Description: First, NHS-fluorescein (240 μM) and NHS-PEG-azide (60 μM) was mixed with BSA (10 μM) in PBS (1×) buffer for 3 h at room temperature. The solution was purified 8 times with PBS using a 50 kDa filter and centrifuged at 3000 rcf and at 4° C. Next, the DBCO-modified single-stranded DNA (ssHy, 5′-[…]/3DBCO/, 250 μM) (SEQ ID NO: 1) was mixed with the BSA solution (10 μM) overnight (˜12 h) at 4° C. The solution was purified 8 times with PBS using a 50 kDa filter and centrifuged at 3000 rcf at 4° C. Finally, the surface-modified BSA (200 nM) was added to the OCs (40 nM) and the solution was cooled down from 45° C. to room temperature over a time course of 60 h. The solution was purified 2 times with TAE (1×) buffer containing 12.5 mM MgCl2 using a 100 kDa filter and centrifuged at 400 rcf and at 4° C.
(1) The fluorescein-modified BSA (80 nM) solution without OCs was incubated at 37° C. in the presence or absence of trypsin (50 nM) overnight ˜12 h prior to fluorescence measurement. Fluorescence spectra were measured with excitation and emission wavelengths of 490 nm and 510-750 nm, respectively and a step size of 2 nm. […] The fluorescence kinetics were measured at λex and λem of 490 nm and 525 nm, respectively and time interval of 3 min. Fluorescence spectra were measured after 15 h at excitation and emission wavelengths of 490 nm and 510-800 nm, respectively and a step size of 2 nm.

Molecule | morphology / aggregation of peptoid-coated OCs (TEM) [1] | OC structure after incubation with DN (TEM) (deoxyribonuclease I (DN)) | relative performance in raising the Tm of the dsDNA (ranking) (15-bp dsDNA) | fluorescence enhancement of fluorescein labeled BSA in the presence of trypsin (trypsin) [%]
COCCOCCOCCN(CC(N)=O)C(=O)CN(CCOC)C(=O)CN(CCOCCOCCOC)C(=O)CN(CCN)C(=O)CN(CCOCCOCCOC)C(=O)CN(CCOC)C(=O)CN(CCOCCOCCOC)C(=O)CN(CCN)C(=O)CN(CCOCCOCCOC)C(=O)CN(CCOC)C(=O)CN(CCOCCOCCOC)C(=O)CN(CCN)C(=O)CN(CCOCCOCCOC)C(=O)CN(CCOC)C(=O)CN(CCOCCOCCOC)C(=O)CN(CCN)C(=O)CN(CCOCCOCCOC)C(=O)CN(CCOC)C(=O)CN(CCOCCOCCOC)C(=O)CN(CCN)C(=O)CN(CCOCCOCCOC)C(=O)CN(CCOC)C(=O)CN(CCOCCOCCOC)C(=O)CNCCN [PE3, Nae6-Nte12 brush] | less aggregation than PE1 | some extents of capability to preserve the origami structure | Tm (dsDNA/PE3)>Tm (dsDNA/PE5) | 
fluorescein labeled BSA: bovine serum albumin modified with fluorescein, trypsin substrate [reference compound] |  |  |  | 85
COCCOCCOCCN(CC(N)=O)C(=O)CN(CCOCCOCCOC)C(=O)CN(CCOCCOCCOC)C(=O)CN(CCOCCOCCOC)C(=O)CN(CCOCCOCCOC)C(=O)CN(CCOCCOCCOC)C(=O)CN(CCN)C(=O)CN(CCN)C(=O)CN(CCN)C(=O)CN(CCN)C(=O)CN(CCN)C(=O)CNCCN [PE4, Nae6-Nte6 block] |  | some extents of capability to preserve the origami structure | Tm (dsDNA/PE2)>Tm (dsDNA/PE1)>Tm (dsDNA/PE4) | 
